This passage reports Ki results from BindingDB's records for doi:10.1016/j.chembiol.2016.11.011 (McMaster University, 2017).

By Ki is commonly meant a dissociation constant, usually derived from enzyme kinetics or from competition with a known ligand.

The target in this experiment is 2''-aminoglycoside nucleotidyltransferase (Pseudomonas aeruginosa (g-Proteobacteria)). Put plainly: In Vitro ANT(2")-Ia Pyrophosphatase Assay. The protocol: In vitro ANT(2")-Ia pyrophosphatase assays were performed as described previously (Cox et al., 2015; Hirsch et al., 2014), with minor modifications. To improve compound solubility, Tween 20 was added to a final concentration of 0.01% (v/v) and compounds were added at a final concentration of 2% (v/v) DMSO. The enzyme ([…] reaction volume) was incubated with compound for 10 min at 25 °C, prior to initiation of the reaction with nucleotide. All inhibitory assays were performed with kanamycin B kept at Km (Cox et al., 2015; Hirsch et al., 2014).

`CS(=O)(=O)CCNCc1ccc(-c2ccc3ncnc(Nc4ccc(OCc5ccccc5)c(Cl)c4)c3c2)o1` showed a Ki of 60 µM.
With `[O-][S+]1CCN(Cc2ccc(-c3ccc4ncnc(Nc5ccc(OCc6ccccc6)c(Cl)c5)c4c3)o2)CC1` [(4-benzyloxy-3-chloro-phenyl)-{6-[5-(1-oxo-1lambda*4*-thiomorpholin-4-ylmethyl)-furan-2-yl]-quinazolin-4-yl}-amine] the figure was 12.9 µM.
